According to publication PMC11019550, “Potent Inhibition of E. coli DXP Synthase by a gem-Diaryl Bisubstrate Analog” (ACS Infectious Diseases, 2024):

Tests used:
[1] = molecular target: T1, EcDXPS (Escherichia coli, UniProt P77488); test: DXPS-IspC coupled assay, apparent Ki on wildtype EcDXPS; format: biochemical; settings: EcDXPS 100 nM, 10 min preincubation; Morrison equation fit; read-out: Ki^app
T1 construct: made in house
Description: To determine inhibitor potency, we used the DXPS-DXP reductoisomerae (DXPS-IspC) coupled assay to measure the activity of recombinant purified EcDXPS[24],[25],[31],[44],[50] in the presence of inhibitors. Reactions were initiated by the addition of substrates following a short preincubation of the inhibitor with enzymes, and initial velocities were determined by monitoring reduced nicotinamide adenine dinucleotide phosphate (NADPH) absorbance at 340 nm. Apparent Ki values were determined by fitting initial velocity data to the Morrison equation,[64],[65] which accounts for the tight-binding nature (Ki^app/[E]total < 10)[66] of inhibitors included in this study and allows for rigorous comparison of inhibitor potencies. […] Inhibitor activities were rationalized based on the predictions made from molecular docking of the corresponding PLThDP adducts into the DXPS active site.
All compounds in this study were evaluated as DXPS inhibitors using the DXPS-IspC coupled assay as previously reported.[24] […] The DXPS reaction was initiated by the addition of substrates (50 μM pyruvate and 500 μM D-GAP). The initial rate of depletion of NADPH was monitored at 340 nm and was used to calculate the initial rate of DXP formation in the presence or absence of inhibitor. Initial rates of DXP formation were plotted as a function of [inhibitor], and Ki^app was determined by fitting the data to the Morrison equation (eq 1)[64],[65] in GraphPad Prism. This approach was deemed appropriate as the concentration of free inhibitor cannot be assumed to remain constant for most of these analogs in which Ki^app values approach the concentration of DXPS.[88],[89] Error is reported as standard deviation from three replicates. Active enzyme concentration ([E]T) was determined following Copeland’s method using 8 (Figure S2B).[88]
The coupled assay was initiated by adding 20 μL of a 10× substrate stock to the preincubated E + I mixture to give a final volume of 200 μL. The final concentration of D-GAP was held constant at 500 μM, and [pyruvate] was added to final concentrations between 0 and 250 μM. The initial rate of NADPH depletion in the IspC-coupled reaction was monitored at 340 nm and was used to calculate the initial rate of DXP formation in the presence or absence of inhibitor. Initial rates were plotted as a function of [pyruvate]. […] Model discrimination analysis employing the Akaike information criterion was performed as well as Lineweaver–Burk analysis to determine the mixed model as the best fit. In all cases, error bars represent the standard deviation from three replicates.

[2] = molecular target: T2, WT EcDXPS (Escherichia coli, UniProt P77488); test: Circular dichroism titration (PLThDP formation, apparent KD) on WT EcDXPS; format: binding
T2 construct: made in house
Excerpt: The X-ray structure obtained from cocrystallization of DrDXPS with 1 (Figure 2) indicates the formation of the PLThDP adduct by reaction of the acetylphosphonate mimic of pyruvate with the C2 carbanion of ThDP. We reasoned that 8 should also engage the pyruvate binding site and react with ThDP to form a PLThDP adduct. Circular dichroism (CD) is a powerful tool that can be used to detect LThDP and LThDP-like adducts on thiamin-dependent enzymes,[56],[67]−[75] including DXPS.[31],[36],[43],[44],[49]−[52],[76] DXPS bound to ThDP (E-ThDP) is characterized by a CD λmin at 320 nm, indicative of the 4′-aminopyrimidine (AP) tautomer of ThDP (Figure 8A). Upon addition of pyruvate to E-ThDP, a new positive signal emerges at 313 nm, indicating the formation of LThDP in its 1′,4′-iminopyrimidine (IP) form. Similarly, upon addition of AP-based inhibitors to E-ThDP, the E-PLThDP adduct is formed, characterized by an increasing, broad CD signal.[69],[77],[78] Determination of apparent KD of PLThDP by plotting the CD signal corresponding to PLThDP versus [MAP] has been used as a proxy for PLThDP affinity.[77],[78] To confirm that 8 reacts with ThDP to form PLThDP in the DXPS active site, the change in CD signal upon addition of 8 (0.25–30 μM) to EcDXPS (30 μM) was measured. […] Plotting the CD signal at 294 nm versus affords a curve that approaches the limiting asymptotes defined by infinitely tight binding (Figure 8C),[79],[80] which is expected for this nanomolar inhibitor under the conditions of high [DXPS] required for this method. Since in this case [DXPS] ≫ KD^app, an accurate determination of KD^app is not possible, and data were fit to a quadratic equation to give an estimated upper limit for the value of KD^app (≤0.04 ± 0.01 μM). Addition of 10 to DXPS also results in an increased, broad CD signal (Figure S7A), indicating PLThDP formation. […]
CD titrations of 8 and 10 onto WT, R99A, and R478A EcDXPS variants were conducted at 25 °C under aerobic conditions in 1.5 mL solutions containing 30 μM EcDXPS in 50 mM HEPES pH 8, 100 mM NaCl, 1 mM MgCl2, and 0.2 mM ThDP. […] The CD signals at 294 nm determined from the difference spectra obtained by subtracting the signal of E-ThDP at 294 nm were plotted as a function of [inhibitor] and fit to (1) the quadratic equation described in eq 2 (8 on WT DXPS), where E is the concentration of DXPS taking into account stoichiometric binding and CDmax is the maximal CD signal, or (2) a one-site specific binding curve (all other experiments) using GraphPad Prism Version 9 to calculate an apparent KD. Experiments were conducted in triplicate and the standard error was calculated. […]
At the conclusion of the titration described above, the CD signal at 313 nm (previously characterized for LThDP) was recorded. […]

[3] = molecular target: T3, R99A EcDXPS (Escherichia coli, UniProt P77488, R99A); test: Circular dichroism titration (PLThDP formation, apparent KD) on R99A EcDXPS; format: binding
T3 construct: made in house
Description: CD titrations of 8 and 10 onto WT, R99A, and R478A EcDXPS variants were conducted at 25 °C under aerobic conditions in 1.5 mL solutions containing 30 μM EcDXPS in 50 mM HEPES pH 8, 100 mM NaCl, 1 mM MgCl2, and 0.2 mM ThDP. Scans were obtained from 280 to 400 nm with a 0.5 s averaging time and 1 nm step following a titration of inhibitor (8: 0.25–30 μM on WT, 0.5–30 μM on R99A and R478A; 10 2.5–30 μM on WT, R99A, and R478A), with a 5 min preincubation of inhibitor with DXPS prior to scanning. […] The CD signals at 294 nm determined from the difference spectra obtained by subtracting the signal of E-ThDP at 294 nm were plotted as a function of [inhibitor] and fit to (1) the quadratic equation described in eq 2 (8 on WT DXPS), where E is the concentration of DXPS taking into account stoichiometric binding and CDmax is the maximal CD signal, or (2) a one-site specific binding curve (all other experiments) using GraphPad Prism Version 9 to calculate an apparent KD. Experiments were conducted in triplicate and the standard error was calculated. [drawing 2] 2
At the conclusion of the titration described above, the CD signal at 313 nm (previously characterized for LThDP) was recorded. Pyruvate (1 mM) was then added to the mixture, and a CD scan of the resulting solution was conducted as described above, to detect shifts in the CD spectrum that may correlate to LThDP formation. Experiments were conducted in triplicate.

With `CC(=O)P(=O)(O)OCCc1cn(C(Cc2ccccc2)(Cc2ccccc2)C(=O)O)nn1` [Compound 8] the Ki [1] was 2.9 ± 0.5 nM, the Kd [2] was ≤ 40 nM and the “change in PLThDP CD signal upon addition of 1 mM pyruvate” value ([2]; WT EcDXPS 30 μM, inhibitor 30 μM) was “negligible shift in the CD signal”. For the same compound, the Kd [3] was 19000 ± 3000 nM and the “change in PLThDP CD signal upon addition of pyruvate” value ([3]; R99A-PLThDP complex) was “shift in the CD profile toward the characteristic LThDP signal”.
